{"source": "paper PMC10051811", "about": "“Plasma and Cerebrospinal Fluid Concentrations of Micafungin Administered at High Doses in Critically Ill Infants with Systemic Candidiasis: A Pooled Analysis of Two Studies” (Pharmaceuticals, 2023)", "experiment": "Treatment-emergent adverse events (TEAEs) in treated infants", "assay_type": "in vivo, human", "procedure": "In order to evaluate drug safety, we analyzed treatment-emergent adverse effects (TEAEs). TEAEs were defined as an adverse effect experienced any time during the study’s drug administration to 72 h after the last dose of the study drug. A reasonable possibility that the event could have been caused by the study drug was assessed by the investigators; if the relationship was missing, it was considered to be drug-related.", "note": "*1 amine or outer side, *2 acyl side, *3 side chain or, on linkers, in order; H or OH if unused. Where a SMILES comes first, the peptide text is derived from it. Bridges are numbered along the chain shown (N, C = ends). [ ]: non-standard residue; d: D form. The star is where a group is joined. hTyr(3S-OH,4S-OH,3'-OSO3H) = N[C@H](C(=O)O)[C@H](O)[C@@H](O)c1ccc(O)c(OS(=O)(=O)O)c1; Orn(4R-OH,5R-OH) = O=C([C@H](C[C@@H](O)[C@@H](O)N[*:3])N[*:1])[*:2]; Pro(3S-OH,4S-Me) = C[C@H]1CN[C@H](C(=O)O)[C@H]1O; X1 = CCCCCOc1ccc(-c2cc(-c3ccc(C(=O)*)cc3)no2)cc1; Gln(3R-OH) = NC(=O)C[C@@H](O)[C@H](N)C(=O)O; Hyp = O=C(O)[C@@H]1C[C@@H](O)CN1", "data": [{"compound": "CCCCCOc1ccc(-c2cc(-c3ccc(C(=O)N[C@H]4C[C@@H](O)[C@@H](O)NC(=O)[C@@H]5[C@@H](O)[C@@H](C)CN5C(=O)[C@H]([C@H](O)CC(N)=O)NC(=O)[C@H]([C@H](O)[C@@H](O)c5ccc(O)c(OS(=O)(=O)O)c5)NC(=O)[C@@H]5C[C@@H](O)CN5C(=O)[C@H]([C@@H](C)O)NC4=O)cc3)no2)cc1", "note": "[micafungin] (X1-[Orn(4R-OH,5R-OH)]T[Hyp][hTyr(3S-OH,4S-OH,3'-OSO3H)][Gln(3R-OH)][Pro(3S-OH,4S-Me)]; lactam 1-C)", "values": [{"measurement": "Patients with overall treatment-emergent adverse events (TEAEs)", "setting": "53 infants, 8-15 mg/kg/day iv, thirty-four patients", "result": 64.2, "unit": "%"}, {"measurement": "Patients with transient hypertransaminasaemia", "setting": "53 infants, one patient, drug-related TEAE", "result": 1.9, "unit": "%"}, {"measurement": "Drug-related TEAEs (not serious)", "setting": "53 infants, three TEAEs", "result": 5.7, "unit": "%"}, {"measurement": "TEAEs leading to death (septic shock, not drug-related)", "setting": "53 infants, three cases", "result": 5.7, "unit": "%"}, {"measurement": "Patients with transiently increased levels of gamma-glutamyltransferase", "setting": "53 infants, two patients, drug-related TEAE", "result": 3.8, "unit": "%"}, {"measurement": "Serious adverse events related to the therapy", "setting": "high doses 8–15 mg/kg/day in neonates and infants", "result": "no serious adverse events"}]}]}
